Like-named read-outs stand apart in the source and are kept apart here.
Tests used:
P. falciparum NF54 [1] = tested on: P. falciparum NF54; parameters: method as in PMID 33925485; settings: formerly prepared compounds 1–5, cited from earlier work; for IC50: chloroquine-sensitive strain NF54, read-out: P.f. NF54 IC50
L-6 cells [2] = tested on: L-6 cells; parameters: method as in PMID 33925485; settings: formerly prepared compounds 1–5; read-out: Cytotoxicity L-6 Cells IC50; cited from earlier work
L-6 cells [3] = assay: In vitro cytotoxicity with L-6 cells (resazurin); format: cell-based, rat
Protocol: (§1) Serial drug dilutions of 11 3-fold dilution steps covering a range from 100 to 0.002 μg/mL were prepared. After 70 h of incubation, the plates were inspected under an inverted microscope to assure the growth of the controls and sterile conditions. […] The plates were read with a Spectramax Gemini XS microplate fluorometer (Molecular Devices Cooperation, Sunnyvale, CA, USA) using an excitation wavelength of 536 nm and an emission wavelength of 588 nm. The IC50 values were calculated by linear regression from the sigmoidal dose inhibition curves using SoftmaxPro software Version 8.2.1 (Molecular Devices Cooperation, Sunnyvale, CA, USA). Podophyllotoxin (Sigma P4405) was used as control.

P. falciparum NF54 [4] = assay: In vitro microplate assay against P. falciparum (3H-hypoxanthine incorporation); format: cell-based, Plasmodium falciparum; settings: for S.I. = IC50 (Cyt.)/IC50 (P.f.NF54): L-6 cells vs P.f. NF54
Protocol: In vitro activity against the erythrocytic stages of P. falciparum was determined using a ^3H-hypoxanthine incorporation assay, using the drug sensitive NF54 strain [37]. […] The 96-well plates were incubated in a humidified atmosphere at 37 °C, 4% CO2, 3% O2 and 93% N2. After 48 h, 0.05 mL of ^3H-hypoxanthine (=0.5 µCi) was added to each well of the plate. The plates were incubated for a further 24 h under the same conditions. The plates were then harvested with a Betaplate cell harvester (Wallac, Zurich, Switzerland). The red blood cells were transferred onto a glass fiber filter and washed with distilled water. The dried filters were inserted into a plastic foil with 10 mL of scintillation fluid and counted in a Betaplate liquid scintillation counter (Wallac, Zurich, Switzerland). The IC50 values were calculated from sigmoidal inhibition curves by linear regression using Microsoft Excel. Chloroquine (Sigma C6628) was used as control.

[5] = In vitro cytotoxicity with L-6 cells (resazurin); format: cell-based, rat; settings: rat
Protocol: as §1

CYP3A4 = CYP3A4 (Homo sapiens, UniProt P08684); assay: Cytochrome P450 3A4 inhibition assay (P450-Glo, Luciferin-IPA); settings: recombinant human CYP3A4 Supersomes (+ oxidoreductase + b5), pH 7.4, probe Luciferin-IPA
Protocol: The CYP3A4 inhibition assay was performed using 96-well white plates (Greiner Bio-One) at a pH of 7.4. […] Stock solutions were further diluted to a final concentration of 20 µM using water (HPLC grade). The luciferin IPA stock solution (3 mM) was diluted to a final concentration of 0.3 mM using water (HPLC grade). The CYP3A4 reaction mixture was prepared by mixing water (HPLC grade) with potassium phosphate buffer (1 M), luciferin IPA (0.3 mM) and CYP3A4 membrane (1 pmol/µL). The control reaction mixture was prepared using water (HPLC grade), potassium phosphate buffer (1 M), luciferin IPA (0.3 mM) and membrane without CYP activity (1 pmol/µL). Solutions A and B of the NADPH regeneration system were mixed and HPLC grade water was added. The reconstituted luciferin detection reagent was prepared by mixing the reconstituted buffer with esterase with the luciferin detection reagent. Then, solutions of test compounds and standard were added to the wells of the 96-well white plate; each was tested in triplicate. The CYP3A4 reaction mixture was added to each well and the plate was incubated for 10 min at room temperature. After that, the NADPH regeneration system was added, inducing the reaction followed by an incubation time of 10 min at ambient temperature. By adding the reconstituted luciferin detection reagent, the reaction was terminated and a luminescent signal was formed. Luminescence was measured by a SpectraMax M3 UV plate reader (Molecular Devices). The relative light units (RLU) were received from a calibration curve with beetle luciferin. […] The CYP3A4 inhibition (%) was calculated from the RLU.

[6] = rat skeletal myofibroblasts, average of four determinations, read-out: Cytotoxicity L-6 Cells IC50
[7] = Plasmodium falciparum, NF54, chloroquine-sensitive strain NF54, average of four determinations, read-out: P.f. NF54 IC50

Sequence of CYP3A4 (P08684 2-503 limits assumed): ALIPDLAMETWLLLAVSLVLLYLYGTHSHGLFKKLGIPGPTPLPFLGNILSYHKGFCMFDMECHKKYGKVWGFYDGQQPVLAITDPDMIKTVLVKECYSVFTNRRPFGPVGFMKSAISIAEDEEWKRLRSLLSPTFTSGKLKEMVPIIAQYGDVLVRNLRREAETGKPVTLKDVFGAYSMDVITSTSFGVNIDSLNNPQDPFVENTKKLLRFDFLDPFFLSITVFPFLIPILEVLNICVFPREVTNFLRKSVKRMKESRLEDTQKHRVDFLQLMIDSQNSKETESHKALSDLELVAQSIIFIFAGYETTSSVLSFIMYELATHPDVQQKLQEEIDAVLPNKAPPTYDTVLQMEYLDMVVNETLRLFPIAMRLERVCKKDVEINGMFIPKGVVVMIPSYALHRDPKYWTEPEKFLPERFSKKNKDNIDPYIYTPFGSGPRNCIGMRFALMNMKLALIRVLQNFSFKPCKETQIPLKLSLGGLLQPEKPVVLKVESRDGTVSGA

Compound | IC50 (P. falciparum NF54 [1]) [µM] | S.I. = IC50 (Cyt.)/IC50 (P.f.NF54) (P. falciparum NF54 [1]) | IC50 (L-6 cells [2]) [µM] | S.I. = IC50 (Cyt.)/IC50 (P.f.NF54) (P. falciparum NF54 [4]) | inhibition at 10 min, 20 µM (CYP3A4) [%] | also measured
CCOc1ccc(-c2nonc2NC(=O)c2cccc(F)c2)cc1OCC [Compound 3] | 0.049 | 839.6 | 41.1 | – | – | –
COc1cc([C@@H]2c3cc4c(cc3[C@H](O)[C@H]3COC(=O)[C@H]23)OCO4)cc(OC)c1OC [POD, podophyllotoxin, reference compound] | – | – | – | – | – | IC50 (L-6 cells [3]; [6]): 0.012 µM
CCOc1ccc(-c2nonc2NC(=O)c2cccc(C(F)(F)F)c2)cc1OCC [Compound 4] | 0.019 | 524.6 | 9.97 | – | – | –
CCN(CC)CCCC(C)Nc1ccnc2cc(Cl)ccc12 (stereo not shown) [CQ, chloroquine, reference compound] | – | – | – | 9672 | – | IC50 (P. falciparum NF54 [4]; Plasmodium falciparum, NF54, read-out: P.f. NF54 IC50): 0.009 µM; IC50 (L-6 cells [3]; [6]): 90.9 µM
CCOc1ccc(-c2nonc2NC(=O)c2ccc(OC)c(Cl)c2)cc1OCC [Compound 5] | 0.014 | 1431 | 20 | – | – | –
O=C(Nc1nonc1-c1ccc([N+](=O)[O-])cc1)c1ccccc1 [Compound 37, N-[4-(4-Nitrophenyl)-1,2,5-oxadiazol-3-yl]benzamide] | – | – | – | 6.694 | 46 | IC50 (P. falciparum NF54 [4]; [7]): 1.81 µM; IC50 at 72 h [5]: 12.2 µM; melting point: 208 °C
Cc1cccc(C(=O)Nc2nonc2-c2ccc(Cl)cc2)c1 [Compound 47, N-[4-(4-Chlorophenyl)-1,2,5-oxadiazol-3-yl]-3-methylbenzamide] | – | – | – | 15.54 | 57 | IC50 (P. falciparum NF54 [4]; [7]): 8.73 µM; IC50 at 72 h [5]: 136 µM; melting point: 165 °C
N-[4-(4-Fluorophenyl)-3-(trifluoromethyl)-1,2,5-oxadiazol-3-yl]benzamide [Compound 50] | – | – | – | – | – | IC50 (P. falciparum NF54 [4]; chloroquine-sensitive strain NF54, average of four determinations, read-out: P.f. NF54 IC50): 8.68 µM; IC50 (L-6 cells [3]): 7.4 µM
CCOc1ccc(-c2nonc2NC(=O)c2cccc(C)c2)cc1OC [Compound 52, N-[4-(4-Ethoxy-3-methoxyphenyl)-1,2,5-oxadiazol-3-yl]-3-methylbenzamide] | – | – | – | 86.47 | 52 | IC50 (P. falciparum NF54 [4]; [7]): 0.275 µM; IC50 at 72 h [5]: 23.8 µM; melting point: 260 °C
CCOc1ccc(-c2nonc2NC(=O)c2ccccc2)cc1OCC [Compound 2] | 0.076 | 1463 | 111 | – | – | –
CCOc1ccc(-c2nonc2NC(=O)c2cccc(C)c2)cc1OCC [Compound 1, reference compound] | 0.011 | 14,483 | 159 | – | 45 | –

Source: PMC10572347, “Structure–Activity Relationships and Antiplasmodial Potencies of Novel 3,4-Disubstituted 1,2,5-Oxadiazoles” (International Journal of Molecular Sciences, 2023)
